Values belong to the molecule of their own block, whether it stands above or below them.
Tests used:
[1] = system: Hela, PANC02, HCT116, and 4T1 cells; assay: HeLa cell uptake of radioligands; assay type: cell-based
Protocol: HeLa cells were seeded in a 24 well culture plate at a density of 2 × 10^4 per well in 400 μL culture media w/ FBS (n=3). After overnight incubation (16 h), human IFN-γ (25ng/well, 50 ng/mL final concentration) in 100 μL DMEM with FBS were added into cells. The cells were rinsed with phosphate-buffered saline (PBS), 500 μL of Earle's Minimum Essential Medium (EMEM) (ATCC 30-2003), and 10 % fetal bovine serum was added to the culture wells. […] At each given time point, the cell supernatants were discarded and cells were washed 3 times with PBS (0.5 mL).

[2] = molecular target: T1, Human IDO (Homo sapiens, UniProt P14902); assay: IDO enzyme inhibition assay (kynurenine formation, absorbance 492 nm); assay type: biochemical; conditions: recombinant human IDO; mean of n ≥ 3, ± SD
T1 construct: purchased Enzo Life Sciences (enzolifesciences.com) ALX-201-333-C050
T1 sequence (P14902 whole entry): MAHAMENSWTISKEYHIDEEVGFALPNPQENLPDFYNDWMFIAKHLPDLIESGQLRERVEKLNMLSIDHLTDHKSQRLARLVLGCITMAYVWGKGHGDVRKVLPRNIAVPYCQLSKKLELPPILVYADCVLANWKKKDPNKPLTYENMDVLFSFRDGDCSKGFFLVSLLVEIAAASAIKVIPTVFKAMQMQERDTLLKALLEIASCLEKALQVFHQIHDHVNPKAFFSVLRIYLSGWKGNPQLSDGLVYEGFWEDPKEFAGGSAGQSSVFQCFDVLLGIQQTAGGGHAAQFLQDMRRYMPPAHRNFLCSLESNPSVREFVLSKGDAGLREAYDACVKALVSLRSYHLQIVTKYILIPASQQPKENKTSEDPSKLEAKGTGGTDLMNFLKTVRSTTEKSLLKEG
Protocol: (§1) The percent inhibition at individual concentrations was determined and the average values of duplicates were obtained. The data was processed using nonlinear regression to generate IC50 values (Prism Graphpad).

[3] = molecular target: T2, IDO1 in IFN-γ stimulated HeLa cells (Homo sapiens, UniProt P14902); assay: IDO HeLa cells assay (IFN-γ induced IDO activity, kynurenine in supernatant); assay type: cell-based; conditions: IFN-γ 50 ng/mL, 48 h incubation, read-out: Inhibition of IFN-γ induced IDO activity in HeLa cells (IC50)
T2 construct: native IDO1 in HeLa cells; endogenous in cells; host or cells: HeLa cells stimulated with human IFN-γ
T2 sequence (P14902 whole entry): as above
Protocol: as §1

[4] = system: IDO1; set-up: method as in PMID 19507862; conditions: in both biochemical and cellular assays; cited from earlier work
[5] = rapid clearance rate; species and reference not given; cited from earlier work
[6] = system: IDO1; set-up: method as in PMID 20197554, PMID 20124451; conditions: Phase I dose-escalation trial, generally well-tolerated doses; cited from earlier work
[7] = In vitro stability in mouse serum by radio-TLC; assay type: in vitro ADME; conditions: 37°C, 3 h
Protocol: Two-hundred microliter samples were collected at 3 h and analyzed by radio-TLC.

[8] = Lipophilicity, shake-flask method (n-octanol/PBS pH 7.4); assay type: physicochemical; conditions: n-octanol/buffer pH 7.4, n=3
Protocol: [^18F]IDO49 (2-30 kBq in 30μL of water) was added to a two-layer system of n-octanol (500 μL) and 0.1 M phosphate buffered saline (PBS) pH 7.4 (500 μL) in an Eppendorf vial. The vessel was vortexed for 3min and then centrifuged at 10,000 rpm for 2 min. An aliquot of each layer (100 μL) was assessed for radioactivity in a wipe counter. The partition coefficient (logD7.4) was calculated as the decimal logarithm of the ratio between the counted radioactivity in the n-octanol layer and the counted radioactivity in the aqueous layer (count of n-octanol sample – count of background) / (count of PBS sample – count of background). CLogP (calculated LogP) values were determined using CHEMBIODRAW ULTRA 12.0 software (Cambridge soft. Perkin-Elmer, Waltham, MA, USA).

[9] = molecular target: IDO1 in Hela cells (Homo sapiens, UniProt P14902); assay: Competitive cell-binding assay of [18F]IDO49 on IFN-γ treated HeLa cells; conditions: inhibitors 1-10000 nM, 30 min incubation
Chain of IDO1 in Hela cells (P14902 whole entry): as above

[10] = system: Hela tumor xenografts; assay: MicroPET imaging of HeLa tumor xenografts with rHu IFN-γ treatment; assay type: in vivo, mouse; conditions: 60 min postinjection, IFN-γ treated HeLa tumor bearing mice, p < 0.05
Protocol: Female athymic C57BL/6 nude mice (4-6 weeks old) were ordered from Charles River Laboratories (Stone Ridge, NY, U.S.A.) and housed in a temperature and humidity controlled room. After 7 to 14 days of acclimatization, a total of 5 ×10^6 Hela cells were inoculated subcutaneously in 200 μL serum-free medium into the right flank of hind leg. Once tumors reached an appropriate size (3-4 mm in diameter) the mice were randomized into 5 groups (4/group). Then the mice in each group were randomized into two subgroups (rHu IFN- γ treatment or no rHu IFN- γ treatment). All the rHu IFN- γ treatment mice were injected i.p. of 1.5×10^5 U rHu IFN- γ /mouse/day. Group one mice were anesthetized by gas inhalation (2% vol/vol isoflurane in oxygen) 24 h later. Then the mice were euthanized and tumor tissues were dissected for further IDO1 western blotting and IHC. The same operation was repeated at 48h, 72h, 96h and 120h points.
In order to evaluate the in vivo imaging performance of [^18F]IDO49 to IDO1 tumors, microPET imaging was performed on nude mice bearing Hela tumor xenografts with and without rHu IFN- γ treatment treatment using the Inveon small-animal PET/CT scanner (Siemens). Anesthesia was induced with 4− 5% isoflurane and maintained with 1− 3% isofluorane delivered with a mixed air/oxygen through a closed nose cone throughout the PET imaging session. […]

SMILES: Cn1cc(C[C@H](N)C(=O)O)c2ccccc21 [1-L-MT, reference compound]
effect on uptake of [18F]IDO5L by HeLa at 120 min ([1]; 1000 μM 1-L-MT, n=4): strong inhibition

IC50 [2]: 95.5 ± 10.4 nM | IC50 [3]: 11.9 nM
SMILES: ON=C(Nc1ccc(F)c(Cl)c1)c1nonc1NCCF [IDO49, N-(3-chloro-4-fluorophenyl)-4-((2-fluoroethyl)amino)-N'-hydroxy-1,2,5-oxadiazole-3-carboximidamide]

SMILES: NS(=O)(=O)NCCNc1nonc1C(=NO)Nc1ccc(F)c(Br)c1 [INCB024360]
IC50 [4]: […] | t1/2 (clearance rate) [5]: < 30 min | inhibition of IDO1 activity [6]: greater than 90%

radioactivity in the intact radioligand [7]: > 95% | logD7.4 [8]: 2.13 ± 0.11
SMILES: Nc1nonc1/C(=N/O)Nc1ccc([18F])c(Cl)c1 [[^18F]IDO5L]
time of peak cellular uptake ([1]; Hela, PANC02, HCT116 and 4T1 cells, assayed at 30, 60, 120 mins, n=3): 60 min

radioactivity in the intact radioligand [7]: > 95% | [18F]IDO49 uptake in Hela cells when co-incubated with NLG919 and INCB024360 [9]: decreased in a dose-dependent manner | logD ([8]; n-octanol/PBS, read-out: logD7.4): 1.37 ± 0.02
SMILES: ON=C(Nc1ccc(F)c(Cl)c1)c1nonc1NCC[18F] [[^18F]IDO49]
tumor to muscle (T/M) uptake ratio, peak [10]: 2.29 ± 0.05

— paper PMC5564531, “Evaluation of radiofluorinated carboximidamides as potential IDO-targeted PET tracers for cancer imaging” (Oncotarget, 2017)
